Molecular target: T1, Human MTHFD2 (Homo sapiens, UniProt P13995)
T1 construct: residues 36-350 in Uniport ID P13995; His6 (N); made in house; host or cells: E. coli
T1 sequence (P13995 36-350): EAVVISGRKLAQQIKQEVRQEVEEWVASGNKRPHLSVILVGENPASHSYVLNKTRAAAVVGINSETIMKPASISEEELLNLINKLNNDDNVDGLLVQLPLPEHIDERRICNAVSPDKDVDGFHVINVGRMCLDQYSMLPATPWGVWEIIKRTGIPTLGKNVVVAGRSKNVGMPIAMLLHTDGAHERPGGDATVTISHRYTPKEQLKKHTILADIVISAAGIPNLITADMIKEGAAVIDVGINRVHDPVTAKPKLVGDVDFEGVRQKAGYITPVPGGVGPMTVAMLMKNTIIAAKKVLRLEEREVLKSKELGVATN
Test: MTHFD2 Activity Assay (dehydrogenase activity, diaphorase/resazurin coupled fluorescence)
Assay type: biochemical
Settings: inhibitory activity (IC50 and/or binding constant); 0.2 nM MTHFD2, 11 concentrations
Outline: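 Steps: compound + 0.2 nM enzyme, 15 min, pH 8.0 Hepes buffer; add 70 μM CH2-THF, 1 mM NAD+, 100 μM resazurin, diaphorase; 30 min; quench with EDTA; read fluorescence. Data normalized to DMSO (100%) and no-enzyme (0%) wells.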

IC50	Compound
0.01 to 1 µM	C[C@@H](O)CNc1nc2c(c(=O)n(Cc3ccc(Cl)c(Cl)c3)c(=O)n2C)n1C [Example 9, 1-[(3,4-dichlorophenyl)methyl]-8-{[(2R)-2-hydroxypropyl]amino}-3,7-dimethyl-2,3,6,7-tetrahydro-1H-purine-2,6-dione]
0.01 to 1 µM	Cn1c(NC[C@@H](O)CO)nc2c1c(=O)n(Cc1ccc(Cl)c(Cl)c1)c(=O)n2C [Example 13, 1-[(3,4-dichlorophenyl)methyl]-8-{[(2R)-2,3-dihydroxypropyl]amino}-3,7-dimethyl-2,3,6,7-tetrahydro-1H-purine-2,6-dione]
0.01 to 1 µM	Cn1c(NC[C@H](O)CO)nc2c1c(=O)n(Cc1ccc(Cl)c(Cl)c1)c(=O)n2C [Example 14, 1-[(3,4-dichlorophenyl)methyl]-8-{[(2S)-2,3-dihydroxypropyl]amino}-3,7-dimethyl-2,3,6,7-tetrahydro-1H-purine-2,6-dione]
5 to 10 µM	Cn1c(NC[C@@H](O)CO)nc2c1c(=O)n(Cc1ccc(Cl)cc1)c(=O)n2C [Example 15, 1-[(4-chlorophenyl)methyl]-8-{[(2R)-2,3-dihydroxypropyl]amino}-3,7-dimethyl-2,3,6,7-tetrahydro-1H-purine-2,6-dione]
> 10 µM	Cn1c(NC[C@H](O)CO)nc2c1c(=O)n(Cc1ccc(Cl)cc1)c(=O)n2C [Example 16, 1-[(4-chlorophenyl)methyl]-8-{[(2S)-2,3-dihydroxypropyl]amino}-3,7-dimethyl-2,3,6,7-tetrahydro-1H-purine-2,6-dione]
5 to 10 µM	C[C@@H](O)CNc1nc2c(c(=O)n(Cc3ccc(Cl)cc3)c(=O)n2C)n1C [Example 17, 1-[(4-chlorophenyl)methyl]-8-{[(2R)-2-hydroxypropyl]amino}-3,7-dimethyl-2,3,6,7-tetrahydro-1H-purine-2,6-dione]
5 to 10 µM	C[C@H](O)CNc1nc2c(c(=O)n(Cc3ccc(Cl)cc3)c(=O)n2C)n1C [Example 18, 1-[(4-chlorophenyl)methyl]-8-{[(2S)-2-hydroxypropyl]amino}-3,7-dimethyl-2,3,6,7-tetrahydro-1H-purine-2,6-dione]
1 to 5 µM	CNc1nc2c(c(=O)n(Cc3ccc(Cl)c(Cl)c3)c(=O)n2C)n1C [Example 21, 1-[(3,4-dichlorophenyl)methyl]-3,7-dimethyl-8-(methylamino)-2,3,6,7-tetrahydro-1H-purine-2,6-dione]
0.01 to 1 µM	CC(=O)NCCNc1nc2c(c(=O)n(Cc3ccc(Cl)c(Cl)c3)c(=O)n2C)n1C [Example 22, N-[2-({1-[(3,4-dichlorophenyl)methyl]-3,7-dimethyl-2,6-dioxo-2,3,6,7-tetrahydro-1H-purin-8-yl}amino)ethyl]acetamide]
1 to 5 µM	Cn1c(NCCCO)nc2c1c(=O)n(Cc1ccc(Cl)c(F)c1)c(=O)n2C [Example 23, 1-[(4-chloro-3-fluorophenyl)methyl]-8-[(3-hydroxypropyl)amino]-3,7-dimethyl-2,3,6,7-tetrahydro-1H-purine-2,6-dione]
5 to 10 µM	C[C@@H](O)CNc1nc2c(c(=O)n(Cc3ccc(Cl)c(F)c3)c(=O)n2C)n1C [Example 24, 1-[(4-chloro-3-fluorophenyl)methyl]-8-{[(2R)-2-hydroxypropyl]amino}-3,7-dimethyl-2,3,6,7-tetrahydro-1H-purine-2,6-dione]
1 to 5 µM	C[C@H](O)CNc1nc2c(c(=O)n(Cc3ccc(Cl)c(F)c3)c(=O)n2C)n1C [Example 25, 1-[(4-chloro-3-fluorophenyl)methyl]-8-{[(2S)-2-hydroxypropyl]amino}-3,7-dimethyl-2,3,6,7-tetrahydro-1H-purine-2,6-dione]
1 to 5 µM	C[C@H](CCO)Nc1nc2c(c(=O)n(Cc3ccc(Cl)cc3)c(=O)n2C)n1C [Example 26, 1-[(4-chlorophenyl)methyl]-8-{[(2R)-4-hydroxybutan-2-yl]amino}-3,7-dimethyl-2,3,6,7-tetrahydro-1H-purine-2,6-dione]
0.01 to 1 µM	C[C@H](CCO)Nc1nc2c(c(=O)n(Cc3ccc(Cl)c(Cl)c3)c(=O)n2C)n1C [Example 27, 1-[(3,4-dichlorophenyl)methyl]-8-{[(2R)-4-hydroxybutan-2-yl]amino}-3,7-dimethyl-2,3,6,7-tetrahydro-1H-purine-2,6-dione]
0.01 to 1 µM	Cn1c(NCCCCO)nc2c1c(=O)n(Cc1ccc(Cl)c(Cl)c1)c(=O)n2C [Example 28, 1-[(3,4-dichlorophenyl)methyl]-8-[(4-hydroxybutyl)amino]-3,7-dimethyl-2,3,6,7-tetrahydro-1H-purine-2,6-dione]
> 10 µM	Cn1c(NCCCO)nc2c1c(=O)n(Cc1ccc(F)c(F)c1)c(=O)n2C [Example 29, 1-[(3,4-difluorophenyl)methyl]-8-[(3-hydroxypropyl)amino]-3,7-dimethyl-2,3,6,7-tetrahydro-1H-purine-2,6-dione]

IC50	Compound
> 10 µM	C[C@H](O)CNc1nc2c(c(=O)n(Cc3ccc(F)c(F)c3)c(=O)n2C)n1C [Example 30, 1-[(3,4-difluorophenyl)methyl]-8-{[(2S)-2-hydroxypropyl]amino}-3,7-dimethyl-2,3,6,7-tetrahydro-1H-purine-2,6-dione]
1 to 5 µM	C[C@@H](CCO)Nc1nc2c(c(=O)n(Cc3ccc(Cl)cc3)c(=O)n2C)n1C [Example 31, 1-[(4-chlorophenyl)methyl]-8-{[(2S)-4-hydroxybutan-2-yl]amino}-3,7-dimethyl-2,3,6,7-tetrahydro-1H-purine-2,6-dione]
0.01 to 1 µM	C[C@@H](CCO)Nc1nc2c(c(=O)n(Cc3ccc(Cl)c(Cl)c3)c(=O)n2C)n1C [Example 32, 1-[(3,4-dichlorophenyl)methyl]-8-{[(2S)-4-hydroxybutan-2-yl]amino}-3,7-dimethyl-2,3,6,7-tetrahydro-1H-purine-2,6-dione]
0.01 to 1 µM	Cn1c(NC2CCCC(O)C2)nc2c1c(=O)n(Cc1ccc(Cl)c(Cl)c1)c(=O)n2C (stereo not shown) [Example 33, 1-[(3,4-dichlorophenyl)methyl]-8-[(3-hydroxycyclohexyl)amino]-3,7-dimethyl-2,3,6,7-tetrahydro-1H-purine-2,6-dione]
> 10 µM	COc1ccc(Cn2c(=O)c3c(nc(NC[C@H](C)O)n3C)n(C)c2=O)cc1 [Example 34, 8-{[(2S)-2-hydroxypropyl]amino}-1-[(4-methoxyphenyl)methyl]-3,7-dimethyl-2,3,6,7-tetrahydro-1H-purine-2,6-dione]
1 to 5 µM	Cn1c(NC2CCNCC2)nc2c1c(=O)n(Cc1ccc(Cl)c(Cl)c1)c(=O)n2C [Example 35, 1-[(3,4-dichlorophenyl)methyl]-3,7-dimethyl-8-[(piperidin-4-yl)amino]-2,3,6,7-tetrahydro-1H-purine-2,6-dione]
5 to 10 µM	C[C@H](O)CNc1nc2c(c(=O)n(Cc3ccc(C(F)(F)F)cc3)c(=O)n2C)n1C [Example 36, 8-{[(2S)-2-hydroxypropyl]amino}-3,7-dimethyl-1-{[4-(trifluoromethyl)phenyl]methyl}-2,3,6,7-tetrahydro-1H-purine-2,6-dione]
0.01 to 1 µM	Cn1c(NCCC(=O)O)nc2c1c(=O)n(Cc1ccc(Cl)c(Cl)c1)c(=O)n2C [Example 37, 3-({1-[(3,4-dichlorophenyl)methyl]-3,7-dimethyl-2,6-dioxo-2,3,6,7-tetrahydro-1H-purin-8-yl}amino)propanoic acid]
1 to 5 µM	Cn1c(N[C@H]2CC[C@H](N)CC2)nc2c1c(=O)n(Cc1ccc(Cl)c(Cl)c1)c(=O)n2C [Example 38, (±)-1-[(3,4-dichlorophenyl)methyl]-3,7-dimethyl-8-{[(trans)-4-aminocyclohexyl]amino}-2,3,6,7-tetrahydro-1H-purine-2,6-dione]
1 to 5 µM	Cn1c(N[C@H]2CC[C@@H](N)CC2)nc2c1c(=O)n(Cc1ccc(Cl)c(Cl)c1)c(=O)n2C [Example 39, (±)-1-[(3,4-dichlorophenyl)methyl]-3,7-dimethyl-8-{[(cis)-4-aminocyclohexyl]amino}-2,3,6,7-tetrahydro-1H-purine-2,6-dione]
1 to 5 µM	CN(C)CCNc1nc2c(c(=O)n(Cc3ccc(Cl)c(Cl)c3)c(=O)n2C)n1C [Example 40, 1-[(3,4-dichlorophenyl)methyl]-8-{[2-(dimethylamino)ethyl]amino}-3,7-dimethyl-2,3,6,7-tetrahydro-1H-purine-2,6-dione]
1 to 5 µM	Cn1c(NCc2cn[nH]c2)nc2c1c(=O)n(Cc1ccc(Cl)c(Cl)c1)c(=O)n2C [Example 42, 1-[(3,4-dichlorophenyl)methyl]-3,7-dimethyl-8-[(1H-pyrazol-4-ylmethyl)amino]-2,3,6,7-tetrahydro-1H-purine-2,6-dione]
0.01 to 1 µM	Cn1c(NCCC(C)(C)O)nc2c1c(=O)n(Cc1ccc(Cl)c(Cl)c1)c(=O)n2C [Example 45, 1-[(3,4-dichlorophenyl)methyl]-8-[(3-hydroxy-3-methylbutyl)amino]-3,7-dimethyl-2,3,6,7-tetrahydro-1H-purine-2,6-dione]
0.01 to 1 µM	Cn1c(N[C@H]2CCCOC2)nc2c1c(=O)n(Cc1ccc(Cl)c(Cl)c1)c(=O)n2C [Example 46, 1-[(3,4-dichlorophenyl)methyl]-3,7-dimethyl-8-{[(3S)-oxan-3-yl]amino}-2,3,6,7-tetrahydro-1H-purine-2,6-dione]
0.01 to 1 µM	Cn1c(N[C@@H]2CCCOC2)nc2c1c(=O)n(Cc1ccc(Cl)c(Cl)c1)c(=O)n2C [Example 47, 1-[(3,4-dichlorophenyl)methyl]-3,7-dimethyl-8-{[(3R)-oxan-3-yl]amino}-2,3,6,7-tetrahydro-1H-purine-2,6-dione]
